The values below are quoted from earlier work in EP4729597A1, “LOW-ALCOHOL BEER-LIKE BEVERAGE AND METHOD FOR PRODUCING LOW-ALCOHOL BEER-LIKE BEVERAGE” (Asahi Group Holdings, Ltd., priority 2023, dated 2024).

SMILES strings stand for the structures. Like-named read-outs stand apart in the source and are kept apart here.

Where [1] appears, read: Table 1, octanol/water partition coefficient.

The term LogP denotes a log measure of how a compound divides between an organic and an aqueous phase. For `CCCCCCCC(=O)OCC` [Ethyl octanoate], the log partition coefficient (LogP) is given as 3.8 under setting [1] and 3.8 (Table 3).
On to `CC(=O)/C=C/C1=C(C)CCCC1(C)C` [β-ionone], for which, under setting [1], the LogP is 4.0.
Regarding `CC(C)=CCC/C(C)=C/CO` [Geraniol], the LogP is recorded as 3.6 under setting [1] and 3.6 (Table 3).
Turning to `CC(C)=CCCC(C)CCO` (centres unmarked) [Citronellol], the lipophilicity (LogP) is listed as 3.9 under setting [1] and 3.9 (Table 3).
In the case of `CC(=O)OCCC(C)C` [Isoamyl acetate], the LogP was 2.3. The LogP (Table 3) is 2.3.
`C=CC(=C)CCC=C(C)C` [Myrcene]: the LogP is listed as 4.3 under setting [1] and 4.3 (Table 3).
